How the values were obtained:
[1] = tested on: lipid peroxidation (LPO) of rat brain homogenate; test: Lipid peroxidation (LPO) of rat brain homogenate, TBARS test; type: biochemical; details: substances at 100 μM, mean ± SEM; for % of Activity, Inhibition of LPO, Fe (II): Fe (II)-induced; for % of Activity, Inhibition of LPO, t-BHP: t-BHP-induced
Procedure: To obtain the brain homogenate, rats preliminarily anesthetized with CO2 were decapitated with a guillotine. The brain was homogenized in a buffer containing KCl (120 mM) and HEPES (20 mM), pH = 7.4 at 4 °C, and centrifuged at 1500 rpm to obtain a supernatant. The protein was quantified according to the standard microbiuret method.
To investigate the effect of the compounds on lipid peroxidation (LPO) of rat brain homogenate, we used the modified version of the TBARS test, which is based on the reaction of 2-thiobarbituric acid with the end LPO product—malonic dialdehyde (MDA). The plate well, according to the experimental scheme, contained the compounds under study (100 μM), rat brain homogenate (2 mg/mL), as well as ferrous iron ions ([…]) at a concentration of 500 μM and 1.6 mM tert-butyl hydroxyperoxide as an initiator. After 30 min of incubation at 37 °C, TBARS reagent was added to all samples, incubated for 90 min at 90 °C, and centrifuged at 6000 rpm for 15 min. The optical density of the selected supernatant was measured on a Victor 3 plate reader (Perkin Elmer) at λ = 540 nm.
A rat brain homogenate preparation containing fragments of cell membranes was used as a model system to investigate the antioxidant activity of the hydroxamic acids. To initiate the process of lipid peroxidation, ferrous ions were used to trigger the Fenton reaction, during which the iron valence changes and a highly reactive hydroxyl radical is formed, and tert-butyl hydroxyperoxide as a direct source of free radicals.

β-amyloid 1–42 = tested on: T1, β-amyloid 1–42; test: β-amyloid 1–42 aggregation, Thioflavin T fluorescence; type: biochemical; details: 100 μM, 72 h incubation
T1 construct: fragments Aβ1–40 and Aβ1–42
Procedure: The effect of the studied compounds on the aggregation of β-amyloid (1–40/1–42) was analyzed using the method of recording Thioflavin T fluorescence (10 µM) for 72 h at 37 °C. The fluorescence signal was measured using a multifunctional flatbed analyzer, the Cytation ™ 3 (BioTek Instruments, Inc., Winooski, VT, USA), at λex = 450 nm, λem = 480 nm.
The effect of hydroxamic acids on the stage of aggregation of the pathological β-amyloid peptide was investigated for 72 h using two model systems—fragments Aβ1–40 and Aβ1–42. The fluorophore Thioflavin T was used as an indicator of the ongoing fibrillation process, the interaction of which with proteins in the state of amyloid fibrils leads to an increase in the fluorescence signal.

5xFAD transgenic mice = test: Novel Object Recognition Test in 5xFAD mice; type: in vivo; details: 15 mg/kg i.p. for 20 days, testing trial 24 h after familiarization
Procedure: All animal procedures were approved by the Animal Care and Use Committee of IPAC RAS. For in vivo studies, 11-month-old male mice of the 5xFAD line (Tg(APPSwFlLon,PSEN1*M146L*L286V) 6799Vas/J) were used. The animals were housed in cages with free access to water and food in a room with a 12 h/12 h light–dark cycle, at a temperature of 23 ± 1 °C and humidity of 50 ± 5%. Before the series of experiments, animals were randomly divided into four groups (n = 8 per group): (1) wild-type group (C57BL6/j mouse line); (2) 5xFAD group; (3) 5xFAD + 15 group; and (4) 5xFAD + 25 group.
Both compounds 15 and 25 were dissolved in saline solution and DMSO (10%) immediately before use and intraperitoneally administered to animals for 20 days at a dose of 15 mg/kg body weight for experiments. In the control group, the vehicle solution (saline and DMSO (10%), intraperitoneal) was administered with the same time schedule.
The Novel Object Recognition Test assesses a mouse’s ability to remember if it has previously encountered an object or not. The same box that had been used in the open field test was used for the Novel Object Recognition Test. Mice were habituated to the box one day before the test, during the open field test. […] All trials were videotaped and analyzed with a computer-operated EthoVision XT system (Noldus, Wageningen, the Netherlands). […]

| Compound | % of Activity, Inhibition of LPO, Fe (II) [1] [%] | % of Activity, Inhibition of LPO, t-BHP [1] [%] | Effect on β-amyloid 1–42 aggregation (β-amyloid 1–42) | Novel object preference (episodic memory) (5xFAD transgenic mice) |
| --- | --- | --- | --- | --- |
| O=C(CCCCCCC(=O)NC1C2CC3CC(C2)CC1C3)NO (centres unmarked) [compound 15, N^1-(Adamant-2-yl)-N^8-Hydroxyoctanediamide] | 21.52 ± 2.15 | 43.24 ± 1.28 | noticeable fibrillation inhibition | significantly showed a strong preference and spent more time studying a new object |
| O=C(/C=C/c1ccc(C(=O)NO)cc1)NC1C2CC3CC(C2)CC1C3 (centres unmarked) [compound 25, 4-((E)-3-((-Adamantan-2-yl)amino)-3-Oxoprop-1-en-1-yl)-N-Hydroxybenzamide] | 19.81 ± 4.83 | 44.59 ± 1.73 | noticeable fibrillation inhibition | began to show memory impairment when presented with a new object |
